Data taken from ChEMBL document CHEMBL3864158, “Syntheses, cytotoxic activity evaluation and HQSAR study of 1,2,3-triazole-linked isosteviol derivatives as potential anticancer agents” (Bioorg Med Chem Lett, 2016).

Tests used:
[1] = Cytotoxicity against human JeKo1 cells assessed as decrease in cell proliferation after 72 hrs by MTT assay; format: functional, cell-based; details: JeKo-1, 72 h
[2] = Cytotoxicity against human HCT116 cells assessed as decrease in cell proliferation after 72 hrs by MTT assay; format: functional, cell-based; details: HCT-116, 72 h

| SMILES | IC50 [1] [µM] | IC50 [2] [µM] |
| --- | --- | --- |
| CCOC(=O)[C@]1(C)CCC[C@@]2(C)[C@@H]3CC[C@@]4(C)C[C@]3(CC[C@@H]21)[C@H](Cn1cc(-c2ccccc2)nn1)[C@H]4O | 18.8 | 8.57 |
| CCOC(=O)[C@]1(C)CCC[C@@]2(C)[C@@H]3CC[C@@]4(C)C[C@]3(CC[C@@H]21)[C@H](Cn1cc(COc2cccc(C=O)c2)nn1)[C@H]4O | 15.6 | 4.64 |
| CCOC(=O)[C@]1(C)CCC[C@@]2(C)[C@@H]3CC[C@@]4(C)C[C@]3(CC[C@@H]21)C[C@@H]4n1cc(COc2ccc(C=O)cc2OC)nn1 | 10.9 | 7.18 |
| CCOC(=O)[C@]1(C)CCC[C@@]2(C)[C@@H]3CC[C@@]4(C)C[C@]3(CC[C@@H]21)C[C@@H]4n1cc(COc2ccc(C(=O)O)cc2)nn1 | 54.4 | 11.8 |
| CCOC(=O)[C@]1(C)CCC[C@@]2(C)[C@@H]3CC[C@@]4(C)C[C@]3(CC[C@@H]21)[C@H](Cn1cc(COc2ccc(C(C)=O)cc2)nn1)[C@H]4O | 19.6 | 8.15 |
| CCOC(=O)[C@]1(C)CCC[C@@]2(C)[C@@H]3CC[C@@]4(C)C[C@]3(CC[C@@H]21)C[C@@H]4n1cc(-c2ccccc2)nn1 | 95.9 | 48.4 |
| CCOC(=O)[C@]1(C)CCC[C@@]2(C)[C@@H]3CC[C@@]4(C)C[C@]3(CC[C@@H]21)[C@H](Cn1cc(COc2ccccc2C=O)nn1)[C@H]4O | 12.7 | 2.99 |
| CCOC(=O)[C@]1(C)CCC[C@@]2(C)[C@@H]3CC[C@@]4(C)C[C@]3(CC[C@@H]21)[C@H](Cn1cc(COc2ccc(C=O)cc2)nn1)[C@H]4O | 16.4 | 6.62 |
| CCOC(=O)[C@]1(C)CCC[C@@]2(C)[C@@H]3CC[C@@]4(C)C[C@]3(CC[C@@H]21)C[C@@H]4n1cc(COc2cccc(C=O)c2)nn1 | 9.5 | 6.5 |
| CCOC(=O)[C@]1(C)CCC[C@@]2(C)[C@@H]3CC[C@@]4(C)C[C@]3(CC[C@@H]21)C[C@@H]4n1cc(COc2ccc(C=O)cc2)nn1 | 11.7 | 8.2 |
| CCOC(=O)[C@]1(C)CCC[C@@]2(C)[C@@H]3CC[C@@]4(C)C[C@]3(CC[C@@H]21)C[C@@H]4n1cc(COc2ccc(C(C)=O)cc2)nn1 | 13.9 | 9.62 |
| CCOC(=O)[C@]1(C)CCC[C@@]2(C)[C@@H]3CC[C@@]4(C)C[C@]3(CC[C@@H]21)C[C@H]4OS(=O)(=O)c1ccc(C)cc1 | 9.75 | 51.4 |
| CCOC(=O)[C@]1(C)CCC[C@@]2(C)[C@@H]3CC[C@@]4(C)C[C@]3(CC[C@@H]21)[C@H](CN=[N+]=[N-])[C@H]4O | 31.2 | 14.8 |
| CC(=O)O[C@@H]1O[C@H](n2cc(COC(=O)[C@]3(C)CCC[C@@]4(C)[C@H]5CC[C@@]6(C)C[C@]5(CC[C@@H]43)CC6=O)nn2)[C@@H](OC(C)=O)[C@@H](OC(C)=O)[C@H]1OC(C)=O | 26.3 | 19.3 |
| CCOC(=O)[C@]1(C)CCC[C@@]2(C)[C@@H]3CC[C@@]4(C)C[C@]3(CC[C@@H]21)C[C@@H]4n1cc(COc2ccccc2C=O)nn1 | 12.2 | 3.8 |
| C#CCOC(=O)[C@]1(C)CCC[C@@]2(C)[C@@H]3CC[C@@]4(C)C[C@]3(CC[C@@H]21)CC4=O | 24.7 | 27.1 |
| CCOC(=O)[C@]1(C)CCC[C@@]2(C)[C@@H]3CC[C@@]4(C)C[C@]3(CC[C@@H]21)C[C@@H]4N=[N+]=[N-] | 55.2 | 46.1 |
| CCOC(=O)[C@]1(C)CCC[C@@]2(C)[C@@H]3CC[C@@]4(C)C[C@]3(CC[C@@H]21)[C@H](Cn1cc(CO)nn1)[C@H]4O | 32.3 | 19.6 |
| CCOC(=O)[C@]1(C)CCC[C@@]2(C)[C@@H]3CC[C@@]4(C)C[C@]3(CC[C@@H]21)[C@H](Cn1cc(COc2ccc(C=O)cc2OC)nn1)[C@H]4O | 7.09 | 4.04 |
| CCOC(=O)[C@]1(C)CCC[C@@]2(C)[C@@H]3CC[C@@]4(C)C[C@]3(CC[C@@H]21)C[C@H]4n1cc(COC(=O)[C@]2(C)CCC[C@@]3(C)[C@@H]4CC[C@@]5(C)C[C@]4(CC[C@@H]32)CC5=O)nn1 | 15.3 | 126 |
| C[C@@]12CC[C@@H]3[C@@](CC[C@H]4[C@@]3(C)CCC[C@@]4(C)C(=O)O)(CC1=O)C2 [ISOSTEVIOL] | > 150 | > 150 |
